According to patent US5395932A, “2,3-,4-,5-,6-,7-,8-,9- and/or 10-substituted dibenzoxazepine compounds, pharmaceutical compositions and methods of use” (G. D. Searle & Co., priority 1993, dated 1995):
Counter-ions that a name gives are not always drawn.

Experiments:
[1] = Writhing Assay (PBQ-induced writhing, analgesia); assay type: in vivo, Charles River male albino mice; details: Mus musculus, po, intragastric; for responders at 30 mg/kg: 30 mg per kilogram, 25 minutes before PBQ i.p., writhes ≤ one-half median of saline control, read-out: WRITHING ASSAY, number of mice out of 9 or 10 in which test compound produced analgesia (converted); for ED50: mice, PBQ
Procedure: The phrase "ED50 dose" as used herein means that dose of a compound or drug which produced a biological effect, such as producing analgesia, in 50% of the animals to which the compound or drug was administered. The Writhing Assay is one of the most widely-used experimental procedures for measuring the analgesic activity of different narcotic and nonnarcotic analgesic agents, and involves the continuous, chemically-induced pain of visceral origin to an animal, such as a mouse or rat. [Gyires et al., Arch. int. Pharmacodyn, 267, 131-140 (1984); […] al., Fed. Proc., 15, 494 (1956); Koster et al., Fed. Proc., 18, 412 (1959); and Witken et al., J. Pharmacol. exp. Ther., 133, 400-408 (1961).] Chemicals which may be used to induce this pain include phenylbenzoquinone (PBQ) and acetic acid. As a result of the chemical irritation to the animal, a characteristic stretching and writhing of the animal (dorsiflexion of the animal's back, extension of its hindlimbs and the strong contraction of its abdominal musculature) will generally occur. […] Drugs which reduce the number of writhes of the animal appear to restore the normal nociceptive threshold of the animal. […] Charles River male albino mice, weighing 20 to 30 grams were used in this assay. Twenty-five minutes after intragastric administration to nine or ten mice of 30 mg per kilogram of body weight of a compound of the present invention ("test compound"), […] per 10 g of body weight of a 0.025% w/v solution of PBQ was injected intraperitoneally into each mouse. Ten mice which were given saline in place of a test compound of the invention were used as a control group. Five minutes later, each mouse was individually placed into a glass beaker for observation, and the number of writhes occurring during the following ten-minute period was counted. A test compound was considered to have produced analgesia in a mouse if, in accordance with the conditions set forth above, and under the test criteria employed for this assay, after the administration of 30 mg per kilogram of body weight of a compound of the present invention to the mouse, the number of writhes elicited by a mouse injected with PBQ was equal to, or less than, one-half the median number of writhes recorded for the saline-treated control group of mice that day, as described by Taber in "Predictive Value of Analgesic Assays in Mice and Rats," Advances in Biochemical Psychopharmacology, 8, 191 (1974). The results for the particular compounds of the present invention analyzed in this assay, and discussed in the examples identified below which correspond thereto, are presented in Table 1 hereinbelow as fractions under the heading "WRITHING ASSAY." The fractions indicate the number of mice out of nine or ten in which a test compound produced analgesia. The standard initial screening dose of a test compound employed in this assay was 30 milligrams per […] of body weight. If this initial screening dose of the test compound produced analgesia in seven of nine or ten mice, then the effect of additional doses of the test compound on the writhing response was evaluated, and then the ED50 dose was generally calculated. (The slopes of the dose-response curves for all test compounds analyzed were compared as described by Tallarida and Murray, Manual of Pharmacologic Calculations, Page 11 (Springer Verlag, New York, 1981)). All ED50 doses calculated are also presented below as whole numbers in Table 1, under the heading "WRITHING ASSAY."

[2] = biological target: T1, prostaglandin E2-induced contractions of segments of guinea pig ileum (Cavia porcellus, UniProt A0A286XHJ6); experiment: Prostaglandin (PGE) Antagonism Assay (guinea pig ileum); assay type: cell-based, male albino guinea pigs; details: estimated from 3 micromolar (dose ratio ≥2) or Schild plot (dose ratio ≥5); 37° C.; read-out: PGE ANTAGONISM IN GUINEA PIG ILEUM (pA2) (converted)
T1 construct: Segments of ileum about 2 cm long were then cut and mounted in a 10-mL tissue bath; from tissue; host or cells: guinea pig ileum segments
T1 sequence (A0A286XHJ6 1-405): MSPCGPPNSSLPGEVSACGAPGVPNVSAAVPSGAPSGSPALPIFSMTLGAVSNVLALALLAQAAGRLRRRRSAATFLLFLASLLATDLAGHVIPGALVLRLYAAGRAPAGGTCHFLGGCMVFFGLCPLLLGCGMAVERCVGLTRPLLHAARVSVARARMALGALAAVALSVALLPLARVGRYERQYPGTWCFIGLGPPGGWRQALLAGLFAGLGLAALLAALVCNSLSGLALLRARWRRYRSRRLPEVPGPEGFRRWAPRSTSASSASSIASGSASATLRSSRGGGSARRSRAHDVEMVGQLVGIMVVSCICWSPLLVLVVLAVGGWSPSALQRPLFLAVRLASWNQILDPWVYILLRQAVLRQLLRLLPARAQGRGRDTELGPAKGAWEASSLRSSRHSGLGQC
Text: The phrase "EC50 concentration" as used herein means that concentration of a compound or drug which is necessary to elicit a 50% maximal biological response and, thus, which is necessary to elicit a 50% reduction in the contractions of guinea pig ileum segments in a prostaglandin antagonism assay. (b) Prostaglandin (PGE) Antagonism Assay In order to determine the effectiveness of several of the compounds of the present invention ("test compounds") as prostaglandin E2 antagonists,a prostaglandin antagonism assay was conducted, as described below, to determine the ability of these compounds to inhibit prostaglandin E2 -induced contractions of segments of guinea pig ileum. […] Male albino guinea pigs weighing 200 to 500 grams were sacrificed by cervical dislocation. The ilea were then quickly removed from the guinea pigs and placed in a modified Tyrode solution, a solution which is known to those skilled in the art, containing one-half of the usual amount of magnesium ions. Segments of ileum about 2 cm long were then cut and mounted in a 10-mL tissue bath containing the modified Tyrode solution. The solution was maintained at 37° C. and aerated with a gaseous mixture of 95% oxygen and 5% carbon dioxide. Data for a control prostaglandin E2 dose response curve plotting concentration of prostaglandin E2 versus the intensity of contractions, detected isotonically, was then obtained by experimentally adjusting the dose of the prostaglandin E2 being injected into the tissue bath, in a manner known by those of skill in the art. Solutions or suspensions containing an initial concentration (3 micromolar) of a test compound in modified Tyrode solution ("test solutions/suspensions") were then separately substituted for the control bath solution. Each test solution/suspension was then kept in constant contact with the ileum tissue, except for brief periods to drain the bath in preparation for rinsing with fresh test solution/suspension. A second prostaglandin E2 dose response curve was then generated for prostaglandin E2 in the presence of a test compound. A dose ratio of EC50 doses was then calculated from the results of each test in a manner known by those of skill in the art. A test compound was determined to be "active" if the initial concentration used yielded at least a two-fold shift (dose ratio greater than or equal to 2) in the dose response curve for prostaglandin E2. […] The compounds of the present invention which were tested in this assay, and for which results are presented in Table 1, correspond to the particular examples specified in Table 1.

SMILES	Kb [2]	responders at 30 mg/kg [1]	ED50 [1]
O=C(O)c1coc(CN2Cc3ccccc3Oc3ccc(Cl)cc32)n1 [Example 8A, 2-[(8-chlorodibenz[b,f][1,4]oxazepin-10(11H)yl)methyl]-4-oxazole carboxylic acid, sodium salt]	39.8 nM	10%	
O=C(O)c1csc(CN2Cc3ccccc3Oc3ccc(Cl)cc32)n1 [Example 20, 2-[(8-chlorodibenz[b,f][1,4]oxazepin-10(11H)yl)methyl]-4-thiazolecarboxylicacid, sodium salt]	7.94 nM	50%	
O=C(Nc1cncnc1)c1coc(CN2Cc3ccccc3Oc3ccc(Cl)cc32)n1 [Example 16, 2-[(8-chlorodibenz[b,f][1,4]oxazepin-10(11H)yl)methyl]-N-5-pyrimidinyl-4-oxazolecarboxamide]	3160 nM		
O=C(NCCc1ccncc1)c1coc(CN2Cc3ccccc3Oc3ccc(Cl)cc32)n1 [Example 14, 2-[(8-chlorodibenz[b,f][1,4]oxazepin-10(11H)yl)methyl]-N-[2-(4-pyridinyl)ethyl]-4-oxazolecarboxamide, hydrochloride, acetate]	15.8 nM	60%	
O=C(NCc1ccncc1)c1coc(CN2Cc3ccccc3Oc3ccc(Cl)cc32)n1 [Example 11, 2-[(8-chlorodibenz[b,f][1,4]oxazepin-10(11H)yl)methyl]-N-(4-pyridinylmethyl)-4-oxazolecarboxamide, monohydrochloride]	25.1 nM	90%	
Cl.O=C(NCc1ccncc1)c1csc(N2Cc3ccccc3Oc3ccc(Cl)cc32)n1 [Example 26, 2-(8-Chlorodibenz[b,f][1,4]oxazepin-10(11H)-yl)-N-(4-pyridinylmethyl)-4-thiazolecarboxamide, monohydrochloride]	794 nM		9.77 mg/kg
O=C(NCc1ccccn1)c1coc(CN2Cc3ccccc3Oc3ccc(Cl)cc32)n1 [Example 10, 2-[(8-chlorodibenz[b,f][1,4]oxazepin-10(11H)yl)methyl]-N-(2-pyridinylmethyl)-4-oxazolecarboxamide, monohydrochloride]	31.6 nM	20%	
O=C(Nc1ccncc1)c1coc(CN2Cc3ccccc3Oc3ccc(Cl)cc32)n1 [Example 17, 2-[(8-chlorodibenz[b,f][1,4]oxazepin-10(11H)yl)methyl]-N-4-pyridinyl-4-oxazolecarboxamide, hydrochloride]	398 nM		
Cc1nc(CN2Cc3ccccc3Oc3ccc(Cl)cc32)cs1 [Example 23, 8-chloro-10,11-dihydro-10-[(2-methyl-4-thiazolyl)methyl]dibenz[b,f][1,4]oxazepine hydrochloride]		11.1%	
O=C(Nc1ccccn1)c1csc(N2Cc3ccccc3Oc3ccc(Cl)cc32)n1 [Example 30, 2-(8-Chlorodibenz[b,f][1,4]oxazepin-10(11H)-yl)-N-2-pyridinyl-4-thiazolecarboxamide, hydrochloride]		40%	
CN(C)CCNC(=O)c1csc(N2Cc3ccccc3Oc3ccc(Cl)cc32)n1 [Example 27, 2-(8-Chlorodibenz[b,f][1,4]Oxazepin-10(11H)-yl)-N-[2-(dimethylamino)ethyl]-4-thiazolecarboxamide, monohydrochloride]		60%	
O=C(OCc1ccncc1)c1coc(CN2Cc3ccccc3Oc3ccc(Cl)cc32)n1 [Example 12, 4-pyridinylmethyl 2-[(8-chlorodibenz[b,f][1,4]oxazepin-10(11H) -yl)methyl]-4-oxazole carboxylate, hydrochloride]		40%	

The next lines start with results.

Kb [2]	SMILES	responders at 30 mg/kg [1]	ED50 [1]
3160 nM	O=C(Nc1ccncc1)c1csc(N2Cc3ccccc3Oc3ccc(Cl)cc32)n1 [Example 28, 2-(8-Chlorodibenz[b,f][1,4]oxazepin-10(11H)-yl)-N-4-pyridinyl-4-thiazolecarboxamide, hydrochloride]	100%	
1000 nM	O=C(Nc1cccnc1)c1csc(N2Cc3ccccc3Oc3ccc(Cl)cc32)n1 [Example 29, 2-(8-Chlorodibenz[b,f][1,4]oxazepin-10(11H)-yl)-N-3-pyridinyl-4-thiazolecarboxamide, hydrochloride]	60%	
794 nM	OC(/C=C\c1ccncc1)c1csc(N2Cc3ccccc3Oc3ccc(Cl)cc32)n1 (stereo not drawn) [Example 34A, 2-(8-Chlorodibenz[b,f][1,4]oxazepin-10(11H)-yl)-a-[2Z(4-pyridinyl)ethenyl]-4-thiazolemethanol, hydrochloride]		9.7 mg/kg
1580 nM	OC(CCc1ccncc1)c1csc(N2Cc3ccccc3Oc3ccc(Cl)cc32)n1 (stereo not drawn) [Example 34B, α-[2-(8-Chlorodibenz[b,f][1,4]oxazepin-10(11H)-yl)-4-thiazolyl]-4-pyridinepropanol, dihydrochloride]	50%	
631 nM	O=C(NCc1csc(N2Cc3ccccc3Oc3ccc(Cl)cc32)n1)c1ccncc1 [Example 36, N-[[2-(8-Chlorodibenz[b,f][1,4]oxazepin-10(11H)-yl)-4-thiazolyl]methyl]-4-pyridinecarboxamide, hydrochloride]	60%	
631 nM	O=C(CCc1ccncc1)c1csc(N2Cc3ccccc3Oc3ccc(Cl)cc32)n1 [Example 32, 1-[2-(8-Chlorodibenz[b,f][1,4]oxazepin-10(11H)-yl)-4-thiazolyl]-3-(4-pyridinyl)-1-propanone, monohydrochloride]	60%	
